Test results taken from EP0381141B1, “Novel aryl- or heteroaryl-1-alkyl-pyrrole-2-carboxylic acid compounds useful in treating interleukin-1 mediated conditions” (MERRELL DOW PHARMACEUTICALS INC., priority 1989, dated 1990).

Tested on: Interleukin-1 Secretion by Macrophages
Experiment: Ex vivo inhibition of interleukin-1 secretion by macrophages (LPS-stimulated peritoneal cells from orally dosed mice; IL-1 measured by thymocyte H3-thymidine incorporation)
Assay type: in vivo
Settings: p.o. 3 times (40, 24 and 16 hours prior to sacrifice); for Interleukin-1 units/ml Mean ± Sem(n): 100 mg/kg, macrophage culture supernatant, unit = reciprocal of the dilution required to give 50% of maximal H3-thymidine incorporation; for inhibition at 100 mg/kg: Mus musculus, Macrophage, po, versus control group
Method: The interleukin-1 inhibitory properties of the compounds of this invention can readily be determined by standard and well known procedures.
Peritoneal cells from mice which had been orally dosed with 100 mg/kg of test compound 40, 24 and 16 hours prior to sacrifice, were collected by lavage, pooled and washed by centrifugation. The cells were resuspended in RPMI-1640 medium containing antibiotics, and plated. After 1 hour of incubation at 37°C, non-adherent cells were removed, and RPMI, with or without lipopolysaccharide, was added to each well. The presence of lipopolysaccharide will induce interleukin-1 secretion by macrophages. After incubation for 6 hours, the culture supernatant was collected, filtered and stored until assayed.
Mouse thymocytes were suspended in RPMI enriched with fetal bovine serum and 2-mercaptoethanol. Aliquots of cell suspension were incubated with an equal volume of dilutions of macrophage culture supernatant in the presence of a suboptimal amount of phytohemagglutinin for 72 hours in flat-bottom plates. Microcultures were pulsed with H³-thymidine for the last 16 hours and were harvested on glass fiber filters. H₃-thymidine will be incorporated into the DNA of actively proliferating cells. The radioactivity was determined by liquid scintillation counting, and interleukin-1 activity was expressed in units defined as the reciprocal of the dilution required to give 50% of maximal H³-thymidine incorporation.
Compounds were administered at a dosage of 100 mg/kg, p.o. 3 times (40, 24 and 16 hours prior to sacrifice). Compound 1: 1-(2-furanylmethyl)-1H-pyrrole-2-carboxylic acid Compound 2: 1-(phenylmethyl)-1Hpyrrole-2 -carboxylic acid Compound 3: 1-([1,1'-biphenyl]-4-ylmethyl)-1H -pyrrole-2-carboxylic acid

| SMILES | Interleukin-1 units/ml Mean ± Sem(n) | inhibition at 100 mg/kg [%] |
| --- | --- | --- |
| O=C(O)c1cccn1Cc1ccco1 [Compound 1, 1-(2-furanylmethyl)-1H-pyrrole-2-carboxylic acid] | 10.2 +/- 3.4 units/ml | 93.2 |
| O=C(O)c1cccn1Cc1ccccc1 [Compound 2, 1-(phenylmethyl)-1H-pyrrole-2-carboxylic acid] | 171.3 +/- 7.9 units/ml | 67.4 |
| O=C(O)c1cccn1Cc1ccc(-c2ccccc2)cc1 [Compound 3, 1-([1,1'-Biphenyl]-4-ylmethyl)-1H-Pyrrole-2-Carboxylic Acid] | 26.6 +/- 3.9 units/ml | 94.9 |
